Measured values reported in patent US7579353B2, “Pyridinone derivatives against malaria” (Glaxo Group Limited, priority 2005, dated 2009).
Converted amounts (≈) assume the structure as drawn. Read-outs that look alike come from different tables or passages of the source.

What was measured:
Plasmodium falciparum = assay: In vitro anti-malarial activity against Plasmodium falciparum, IC50 assay / [3H]-hypoxanthine incorporation assay; type: cell-based; conditions: Erythrocyte, parasitized red blood cells, 48 hours
Protocol: In Vitro Anti-malarial Activity Against Plasmodium falciparum
IC50 Assay/[^3H]-Hypoxanthine Assay
Plasmodium falciparum strains.
The culture medium comprised RPMI 1640 with 25 mM HEPES, sodium bicarbonate and glutamine (GIBCO™ cat. ref.: 52400), supplemented with 10% of pooled human sera AB (Irvine Scientific, cat. ref.: 5009) and HT supplement (0.15 mM hypoxanthine and 24 μM thymidine), (GIBCO™ cat. ref.: 41065). Human sera were decomplemented 30 min. at 56° C., aliquoted and stored frozen at −20° C. until use in this culture medium.
Red blood cells O+ stock suspensions were prepared from whole blood bags coming from incomplete blood donation, provided by the Spanish Red Cross (<25 days after sampling). This “whole blood” was aliquoted and stored at 4° C.
To prepare red blood cells for the assay, the whole blood was centrifuged and washed 3 times with RPMI without serum. The upper phase, containing white blood cells was removed. The washed red blood cells were kept as a 50% suspension in complete medium. The prepared cells were stored at 4° C. and were employed in the assay at any time up to 4 days after preparation.
Test compounds were dissolved at 2 mg/ml in 100% DMSO on the day of the assay. If necessary, complete dissolution was achieved by gentle heating (the mixture was heated at a temperature <37° C.) and sonication (sonication bath).
For IC50 determinations, 10 serial 2-fold dilutions were prepared in complete medium in the presence of a constant amount of DMSO.
Plasmodium falciparum strains were maintained in complete medium at an hematocrit of 5% in continuous culture using a method adapted from Trager and Jensen (1, 2).
The parasitemia was calculated by counting the percentage of parasitized erythrocytes by optical microscopy. Thin films of blood were made every day from each culture flask, fixed with methanol and stained for 10 min. in Giemsa (Merck, cat ref.: 1.09204) at 10% in buffered water pH 7.2. The glass slides were observed and counted with an optical microscope (Nikon, Eclipse E200) equipped with a 100× immersion oil objective.
The culture was maintained at an hematocrit of 5%, with a daily change of medium and was diluted when parasitemia had reached about 5%.
[^3H] Hypoxanthine incorporation assay was conducted using a method adapted from Desjardins et al. (3). The assays were performed in 96 wells flat bottom microplates.
1. Serial dilutions of the test compounds (50 μl of a 5× solution/well) were deposited in duplicate. Compounds of the invention were tested in this assay. Chloroquine and Atovaquone were used as control compounds for each assay.
3. [^3H]-Hypoxanthine (Amersham Biosciences, cat. ref.: TRK74) was added extemporaneously to the inoculum suspension at a concentration of 1 μCi/ml (equating to […]). 200 μl of the resulting suspension was distributed into each well (other than the control well H12 described below) leading to a final volume of 250 μl per well, at 2% of hematocrit and 0.5% of parasitemia/well.
4. In each plate, 2 columns were reserved for control wells: • Column 11: Positive control wells: PRBCs with 0.2% DMSO—(i) to determine DMSO solvent effect on parasite growth (at a final concentration of 0.2%) and (ii) to compare with cultures treated with test compounds. • Column 12 (comprising wells A12-H12): • A12-D12—Background value wells: Uninfected RBCs—blank control to obtain the background reading from RBCs without parasites. • E12-G12—Solvent effect wells: PRBCs without DMSO—to determine DMSO solvent effect on PRBCs by comparing these wells with column 11 wells. • H12-Non-radioactive well: PRBCs with cold hypoxanthine—(i) to carry out a thin blood film to determine parasitemia value after incubation by microscopy and (ii) to ensure that the parasites have grown properly during the assay. (200 μl of inoculum suspension was prepared as described above (Items 2 and 3) but with non-tritiated hypoxanthine instead of [3H]-hypoxanthine, then added to this well to a final volume of 250 μl). […]

[1] = Compound solubility determination (gross and equilibrium solubility; FaSSIF, FeSSIF, pH 7.4 PBS, pH 1.0 0.1N HCl, pH 4.5 sodium citrate); type: physicochemical; conditions: thermodynamic from solid
Protocol: Compound Solubility Determination
An amount of 3 mg solid compound with LC-MS purity ≧95% was required. This amount was split between 3 different glass vials (1.8 ml volume each), placing 1 mg compound into each one.
Organic solvents of HPLC grade were used. Ultra pure water (Milli-Q grade) was used. Buffers were prepared with ultra pure water and filtered using 0.45μ cameo filters. The compositions of each solvent employed in this assay are described below (part III).
2. Determination of Equilibrium Solubility (Assuming Chemical Stability in the Desired Solvent is not a Problem).
For each of the three vial samples prepared as described above, in which the amount of compound was totally dissolved, the following procedure was subsequently carried out: • a) A small amount (approx. 0.1 mg) of additional solid compound was added to the vial to maintain an excess of the compound in the mixture in the form of undissolved solid. • b) The samples were magnetically stirred for 24 hr. If required, additional solid compound (0.1 mg) was added to maintain excess of it and then the samples were stirred again. • c) Then the samples were filtered (Millipore Milex filters nylon 0.2 um) and three aliquots were taken (one from each of the three vials) and analysed by LC-MS. • d) The pH of the final solution in each sample was measured with a pH-meter (WTW pH330i and a pH-electrode Sentix 41).
3. LC-MS Assay for Analytical Quantification
All filtered aliquots were analysed by LC-MS. The analysis was carried out with a Luna 5 μC18 (2) column 4.6×150 mm, using a HP1100 HPLC instrument interfaced with a Waters ZMD-2000 MS spectrometer. The concentration of the final sample as prepared above was calculated from that of a reference calibration curve obtained from serial dilutions of a 2 mM solution of the compound under investigation in DMSO (Aldrich cat. ref.: 27685-5) stock solution.
The analysis of all LC-MS data was performed with MassLynx 3.4 software. Statistical and graphic analysis of data was performed using Microsoft Excel. The concentration (uM) and solubility (ug/ml) for each compound was calculated using the peak areas from the sample and those from the calibration curve.
A) FaSSIF is a solvent which simulates the Fasted State of the Intestinal Fluid. (FaSSIF: Fasted State Simulated Intestinal Fluid).
B) FeSSIF is a solvent which simulates the Fed State of the Intestinal Fluid. (FeSSIF: Fed State Simulated Intestinal Fluid).
C) Solubility at pH 7.4 was determined in phosphate buffered saline (PBS) (Fluka cat. ref: 79383)
D) Solubility at pH 1.0 was determined in 0.1N HCl solution (Scharlau AL0744010C)
E) Solubility at pH 4.5 was determined in sodium citrate 0.5M solution. (Aldrich 25, 127-5)

[2] = 0.1N HCl solution, simulated gastric fluid, pH 1 (HCl), read-out: Solubility at pH 1 (HCl)
[3] = FaSSIF (fasted state simulated intestinal fluid), fassif, read-out: Solubility in FaSSIF
[4] = FeSSIF (fed state simulated intestinal fluid), fessif, read-out: Solubility in FeSSIF
[5] = phosphate buffered saline (PBS), aqueous buffer, pH 7.4 (PBS), read-out: Solubility at pH 7.4 (PBS)
[6] = sodium citrate 0.5M solution, aqueous buffer, pH 4.5 (Na citrate), read-out: Solubility at pH 4.5 (Na citrate)

IC50 (Plasmodium falciparum)	Compound	also measured
< 0.125 µg/mL	Cc1[nH]c(C)c(-c2ccc(OCc3ccc(F)cc3)nc2)c(=O)c1Br [Example 6, 5-Bromo-6′-{[4-fluorobenzyl]oxy}-2,6-dimethyl-3,3′-bipyridin-4(1H)-one]	–
< 0.125 µg/mL	Cc1[nH]c(C)c(-c2ccc(-c3ccc(OCC(F)(F)F)cc3)nc2)c(=O)c1Cl [Example 62, 5-Chloro-2,6-dimethyl-6′-{4-[2,2,2-trifluoroethoxy]phenyl}-3,3′-bipyridin-4(1H)-one]	–
< 0.125 µg/mL	Cc1[nH]c(C)c(-c2ccc(-c3ccc(OC(F)(F)F)cc3)nc2)c(=O)c1Br [Example 15, 5-Bromo-2,6-dimethyl-6′-{4-[(trifluoromethyl)oxy]phenyl}-3,3′-bipyridin-4(1H)-one]	–
0.5 µg/mL (≈ 1.79 µM)	Cc1[nH]c(C)c(-c2ccccn2)c(=O)c1Br [Compound W, 5′-Bromo-2′,6′-dimethyl-2,3′-bipyridin-4′-(1′H)-one, reference compound]	–
< 0.125 µg/mL	Cc1[nH]c(C)c(-c2ccc(-c3cccc(Cl)c3)nc2)c(=O)c1Cl [Example 34, 5-Chloro-6′-(3-chlorophenyl)-2,6-dimethyl-3,3′-bipyridin-4(1H)-one]	–
< 0.125 µg/mL	Cc1[nH]c(C)c(-c2ccc(OCc3cc(C(F)(F)F)cc(C(F)(F)F)c3)nc2)c(=O)c1Br [Example 5, 5-Bromo-2,6-dimethyl-6′-{[3,5-bis(trifluoromethyl)benzyl]oxy}-3,3′-bipyridin-4(1H)-one]	–
< 0.125 µg/mL	Cc1[nH]c(C)c(-c2ccc(CCc3cccc(C(F)(F)F)c3)nc2)c(=O)c1Br [Example 43, 5-Bromo-2,6-dimethyl-6′-{2-[3-(trifluoromethyl)phenyl]ethyl}-3,3′-bipyridin-4(1H)-one]	–
< 0.125 µg/mL	Cc1[nH]c(C)c(-c2ccc(OCc3ccc(OC(F)(F)F)cc3)nc2)c(=O)c1Cl [Example 8, 5-Chloro-2,6-dimethyl-6′-{[4-(trifluoromethoxy)benzyl]oxy}-3,3′-bipyridin-4(1H)-one]	–
–	Cc1[nH]c(C)c(-c2ccc(Oc3cccc(C(F)(F)F)c3)cc2)c(=O)c1Cl [comparator Z]	solubility at 24 h ([1]; aqueous buffer, pH 4.5 (Na citrate), read-out: Solubility at pH 4.5 (Na citrate)): < 1 µg/mL; solubility at 24 h ([1]; aqueous buffer, pH 7.4 (PBS), read-out: Solubility at pH 7.4 (PBS)): < 1 µg/mL; solubility at 24 h ([1]; fassif, read-out: Solubility in FaSSIF): < 1 µg/mL; solubility at 24 h ([1]; fessif, read-out: Solubility in FeSSIF): 1 to 5 µg/mL (≈ 2.54 to 12.7 µM); solubility at 24 h ([1]; simulated gastric fluid, pH 1 (HCl), read-out: Solubility at pH 1 (HCl)): < 1 µg/mL
< 0.125 µg/mL	Cc1[nH]c(C)c(-c2ccc(OCc3cccc(C(F)(F)F)c3)nc2)c(=O)c1Br [Example 2, 5-Bromo-2,6-dimethyl-6′-{[3-(trifluoromethyl)benzyl]oxy}-3,3′-bipyridin-4(1H)-one]	–
< 0.125 µg/mL	Cc1[nH]c(C)c(-c2ccc(-c3ccccc3C(F)(F)F)nc2)c(=O)c1Cl [Example 32, 5-Chloro-2,6-dimethyl-6′-{2-[trifluoromethyl]phenyl}-3,3′-bipyridin-4(1H)-one]	–
< 0.125 µg/mL	Cc1[nH]c(C)c(-c2ccc(C#Cc3ccc(C(F)(F)F)cc3)nc2)c(=O)c1Br [Example 40, 5-Bromo-2,6-dimethyl-6′-{[4-(trifluoromethyl)phenyl]ethynyl}-3,3′-bipyridin-4(1H)-one]	–
< 0.125 µg/mL	Cc1[nH]c(C)c(-c2ccc(OCc3ccc(OC(F)(F)F)cc3)nc2)c(=O)c1Br [Example 1, 5-Bromo-2,6-dimethyl-6′-{[4-(trifluoromethoxy)benzyl]oxy}-3,3′-bipyridin-4(1H)-one]	–
< 0.125 µg/mL	CCCCc1ccc(-c2ccc(-c3c(C)[nH]c(C)c(Br)c3=O)cn2)cc1.Cl [Example 39, 5-Bromo-6′-(4-n-butylphenyl)-2,6-dimethyl-3,3′-bipyridin-4(1H)-one]	–
–	Cc1[nH]c(C)c(-c2ccc(Oc3ccc(OC(F)(F)F)cc3)cc2)c(=O)c1Cl [comparator Y]	solubility at 24 h [1, 2]: < 1 µg/mL; solubility at 24 h [1, 3]: < 1 µg/mL; solubility at 24 h [1, 4]: 1 to 5 µg/mL (≈ 2.44 to 12.2 µM); solubility at 24 h [1, 5]: < 1 µg/mL; solubility at 24 h [1, 6]: < 1 µg/mL
< 0.125 µg/mL	Cc1[nH]c(C)c(-c2ccc(-c3ccc(C(F)F)cc3)nc2)c(=O)c1Cl [Example 63, 5-Chloro-2,6-dimethyl-6′-{4-[difluoromethyl]phenyl}-3,3′-bipyridin-4(1H)-one]	–
< 0.125 µg/mL	Cc1[nH]c(C)c(-c2ccc(-c3ccc(C(F)(F)F)cc3)nc2)c(=O)c1Cl [Example 30, 5-Chloro-2,6-dimethyl-6′-{4-[trifluoromethyl]phenyl}-3,3′-bipyridin-4(1H)-one]	–
< 0.125 µg/mL	Cc1[nH]c(C)c(-c2ccc(-c3ccc(Cl)cc3)nc2)c(=O)c1Cl [Example 33, 5-Chloro-6′-(4-chlorophenyl)-2,6-dimethyl-3,3′-bipyridin-4(1H)-one]	–
< 0.125 µg/mL	Cc1[nH]c(C)c(-c2ccc(-c3ccccc3Cl)nc2)c(=O)c1Cl [Example 35, 5-Chloro-6′-(2-chlorophenyl)-2,6-dimethyl-3,3′-bipyridin-4(1H)-one]	–
< 0.125 µg/mL	Cc1[nH]c(C)c(-c2ccc(-c3ccc(N(C)C)c(Br)c3)nc2)c(=O)c1Br [Example 71, 5-Bromo-6′-[3-bromo-4-(dimethylamino)phenyl]-2,6-dimethyl-3,3′-bipyridin-4(1H)one]	–
–	Cc1nc(C)c(-c2ccc(-c3ccc(Cl)cc3)cc2)c(O)c1Br [comparator X]	solubility at 24 h [1, 2]: < 1 µg/mL; solubility at 24 h [1, 3]: 5 to 10 µg/mL (≈ 12.9 to 25.7 µM); solubility at 24 h [1, 4]: 5 to 10 µg/mL (≈ 12.9 to 25.7 µM); solubility at 24 h [1, 5]: < 1 µg/mL; solubility at 24 h [1, 6]: < 1 µg/mL
